What was measured:
[1] = Off-target panel of enzyme and receptor binding sites, ion channels, transporters; conditions: 10 μM
in vivo [2] = conditions: female, rat, po, 10 mg/kg/day
[3] = Brain penetration in male rats; format: in vivo; conditions: rat, brain and plasma, oral, 25 mg/kg, read-out: Brain-to-plasma ratio
P-glycoprotein = P-glycoprotein bidirectional transport; format: in vitro ADME, human, monkey, and rat
Source text: (§1) Glucuronide conjugates of the oxygenated metabolites are detected in human, monkey, and dog hepatocyte preparations. […] However, the abundance of CYP3A5, CYP2C19, and CYP2D6 in human liver microsomes is low (2%-5%) relative to the primary contributors, CYP3A4 (˜30%) and CYP2C9 (˜20%). […] Information on reproductive and developmental toxicology was obtained in a 28-day pivotal female fertility study in rats and in preliminary embryo-fetal development studies in rats and rabbits.

CYP2C9 = biological target: T1, CYP2C9 (Homo sapiens, UniProt P11712); assay: In vitro metabolism (liver microsomes, hepatocytes, recombinant CYPs, anti-CYP antibodies); format: in vitro ADME; conditions: recombinant CYP2C9
T1 construct: host or cells: pooled liver microsomes, hepatocytes and recombinant CYP enzymes
T1 sequence (P11712 whole entry): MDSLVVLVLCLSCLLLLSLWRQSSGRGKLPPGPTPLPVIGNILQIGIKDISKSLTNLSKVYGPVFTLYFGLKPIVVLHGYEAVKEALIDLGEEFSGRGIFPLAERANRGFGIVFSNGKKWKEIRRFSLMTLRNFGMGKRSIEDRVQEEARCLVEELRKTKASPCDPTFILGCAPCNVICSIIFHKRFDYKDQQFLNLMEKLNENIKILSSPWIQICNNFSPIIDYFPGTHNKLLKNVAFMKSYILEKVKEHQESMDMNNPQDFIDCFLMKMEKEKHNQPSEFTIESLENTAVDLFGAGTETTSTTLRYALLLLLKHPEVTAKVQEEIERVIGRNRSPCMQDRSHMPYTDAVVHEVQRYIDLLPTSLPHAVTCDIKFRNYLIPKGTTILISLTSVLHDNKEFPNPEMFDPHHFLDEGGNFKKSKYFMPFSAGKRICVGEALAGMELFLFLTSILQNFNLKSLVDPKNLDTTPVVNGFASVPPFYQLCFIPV
Source text: as §1

[4] = 90-day oral toxicology in Beagle dogs; conditions: dog, in vivo; for NOAEL at 90 days: both
CYP2B6 = CYP2B6 mRNA induction in human hepatocytes; format: in vitro ADME
Source text: as §1

[5] = Phase 1 multiple-dose pharmacokinetics (PN002/Part II); conditions: human, plasma
[6] = Single-dose toxicokinetic study in dogs; format: in vivo; conditions: dog, plasma, po, 800 mg/kg
[7] = T-CALM: plasma concentrations by 5-in-1 LC/MS/MS; format: in vivo, human; conditions: for Plasma concentration, mean: trough
Description: Additionally, at Visit 4, a post-dose sample will be collected as close to 4 hours post-dose as possible, but within the window of 4-6 hours post-dose (i.e., a total of two PK samples are collected at Visit 4.)
Assay performances were satisfactory and met acceptance criteria for system performance suitability, quantitation range, calibration linearity, assay accuracy and precision, and assay recovery.

Pharmacokinetics in rats = format: in vivo, rat; conditions: for AUC: read-out: AUC24
Description: The validity and reproducibility of the assays were determined, and the precision and accuracy for calibration standards and quality control samples were examined. […] The analytes were stable in plasma under the storage and assay conditions. […] Assay performances were satisfactory and met acceptance criteria for system performance suitability, quantitation range, calibration linearity, assay accuracy and precision, and assay recovery.

WAG/Rij rats = assay: WAG/Rij rat model of absence epilepsy; format: in vivo; conditions: for Percent of inhibition: 10 mg/kg oral
Source text: Other T-type antagonists from structurally diverse series have shown similar efficacy in this model (Broicher, 2007; Blumenfeld, 2008; Broicher, 2008; Shipe, 2008; Yang, 2008; Uebele, 2009; Russo, 2010; Russo, 2011).
Data were scored with automated seizure analysis software, averaged, and normalized to enable treatment comparisons (FIG. 76)
Control animals received vehicle administrations. […] Source: Merck TTA Package Description (FIG. 79).

[8] = test system: T2, CYP1A2, CYP3A4, CYP2C8, CYP2C9, CYP2C19, CYP2D6; assay: CYP inhibition in human liver microsomes; format: in vitro ADME; conditions: human liver microsomes
T2 construct: IC50, CYP1A2, CYP3A4, CYP2C8, CYP2C9, CYP2C19, CYP2D6; other: human liver microsomes

[9] = test system: patients with essential tremor; assay: T-CALM: Patient Global Impression of Change (PGIC); format: in vivo, human; conditions: for PGIC (rescaled −3 to 3), LS mean (SE) / PGIC, LS mean difference from placebo (95% CI): ANCOVA; for 0 - no change / 1 - minimally improved / 2 - much improved / 3 - very much improved / −1 - minimally worse / −2 - much worse / −3 - very much worse: PGIC
Source text: Treatment success as measured by PGIC was summarized using descriptive statistics.

in vivo [10] = conditions: Beagle, dog, in vivo, po
[11] = Rat, IV 2 mg/kg, mean of 2 animals

C[C@@H](NC(=O)Cc1ccc(C(C)(C)O)cc1)c1ccc(OCC(F)(F)F)cn1 [M02]
Off-target effects (≥50% inhibition or stimulation) ([1]; 87 targets): No significant results | AUC (in vivo [2]): 31.7 µM·h | Cmax (in vivo [2]): 5400 nM | Kp at 2 h [3]: 0.32 | P-glycoprotein substrate or inhibitor activity (P-glycoprotein): showed increased efflux in the rat and monkey assays | KM for CYP2C9 reactions (formation) (CYP2C9): ~3 µM | AUC ([4]; female, Beagle, po, 10 mg/kg): 103 µM·h | AUC ([4]; female, Beagle, po, 30 mg/kg): 209 µM·h | AUC ([4]; female, Beagle, po, 100 mg/kg/day): 339 µM·h | AUC ([4]; male, Beagle, po, 10 mg/kg): 149 µM·h | AUC ([4]; male, Beagle, po, 30 mg/kg): 213 µM·h | AUC ([4]; male, Beagle, po, 100 mg/kg/day): 1800 µM·h | CYP2B6 induction (CYP2B6): mild to moderate inducers | half-life ([5]; 2 mg): 15 h | AUC ([5]; 2 mg, AUC24, M02, Day 7, CX-8998 2 mg once daily): 0.93 µM·h | Cmax ([5]; 2 mg, M02, Day 7, CX-8998 2 mg once daily): 54 nM | half-life ([5]; 4 mg): 15.4 h | AUC ([5]; 4 mg, AUC24, M02, Day 7, CX-8998 4 mg once daily): 1.86 µM·h | Cmax ([5]; 4 mg, M02, Day 7, CX-8998 4 mg once daily): 106 nM | half-life ([5]; 8 mg): 12.2 h | AUC ([5]; 8 mg, AUC24, M02, Day 7, CX-8998 8 mg once daily): 3.54 µM·h | Cmax ([5]; 8 mg, M02, Day 7, CX-8998 8 mg once daily): 219 nM | half-life ([5]; 12 mg): 14.5 h | AUC ([5]; 12 mg, AUC24, M02, Day 7, CX-8998 12 mg once daily): 4.55 µM·h | Cmax ([5]; 12 mg, M02, Day 7, CX-8998 12 mg once daily): 287 nM | half-life ([5]; 18 mg): 12.8 h | AUC ([5]; 18 mg, AUC24, M02, Day 7, CX-8998 18 mg once daily): 7.97 µM·h | Cmax ([5]; 18 mg, M02, Day 7, CX-8998 18 mg once daily): 481 nM | half-life ([5]; male, oral): 12.2 to 15.4 h | Tmax ([6]; female): 8 h | Tmax ([6]; male): 8 h | Plasma concentration, mean ([7]; Visit 2 (Day 8), 4 mg BID): 168 nM | Plasma concentration, mean ([7]; Visit 3 (Day 15), 8 mg BID): 325 nM | Plasma concentration, mean ([7]; Visit 4 (Day 28), 10 mg BID): 406 nM | concentration at 4 h ([7]; human, plasma, oral, Visit 4 (Day 28), 10 mg BID, 4 hours post-dose): 438 nM | AUC (Pharmacokinetics in rats; female, rat, plasma, po, 10 mg/kg): 31 µM·h | AUC (Pharmacokinetics in rats; male, rat, plasma, po, 10 mg/kg): 10 µM·h | Percent of inhibition (WAG/Rij rats): 67% | IC50 [8]: > 20 µM

CC(C)c1ccc(CC(=O)N[C@H](C)c2ccc(OCC(F)(F)F)cn2)cc1 [CX-8998]
Off-target effects ([1]; over 170 targets): No off-target effects | PGIC Improved, percent ([9]; Day 15): 66.67% | PGIC No Change, number ([9]; Day 15): 11 | PGIC No Change, percent ([9]; Day 15): 28.2% | PGIC Worsened, number ([9]; Day 15): 2 | PGIC Worsened, percent ([9]; Day 15): 5.12% | PGIC (rescaled −3 to 3), Mean (SD) ([9]; Day 15, N = 39): 1 (1.0) | PGIC (rescaled −3 to 3), Median (minimum, maximum) ([9]; Day 15, N = 39): 1 (−2, 3) | PGIC Category 0 No change, patients n (%) ([9]; Day 15, N = 39): 11 (28%) | PGIC Category 1 Minimally improved, patients n (%) ([9]; Day 15, N = 39): 17 (44%) | PGIC Category 2 Much improved, patients n (%) ([9]; Day 15, N = 39): 8 (21%) | PGIC Category 3 Very much improved, patients n (%) ([9]; Day 15, N = 39): 1 (3%) | PGIC Category −1 Minimally worse, patients n (%) ([9]; Day 15, N = 39): 1 (3%) | PGIC Category −2 Much worse, patients n (%) ([9]; Day 15, N = 39): 1 (3%) | PGIC Category −3 Very much worse, patients n (%) ([9]; Day 15, N = 39): 0 | PGIC (rescaled −3 to 3), LS mean (SE) ([9]; Day 15): 0.9 (0.17) | PGIC, LS mean difference from placebo (95% CI) ([9]; Day 15): 0.7 (0.2, 1.1) | PGIC Improved, number ([9]; Day 28): 20 | PGIC Improved, percent ([9]; Day 28): 54.05% | PGIC No Change, number ([9]; Day 28): 14 | PGIC No Change, percent ([9]; Day 28): 37.84% | PGIC Worsened, number ([9]; Day 28): 3 | PGIC Worsened, percent ([9]; Day 28): 8.11% | PGIC Category 0 No change, patients n (%) ([9]; Day 28, N = 39): 14 (36%) | PGIC Category 1 Minimally improved, patients n (%) ([9]; Day 28, N = 39): 10 (26%) | PGIC Category 2 Much improved, patients n (%) ([9]; Day 28, N = 39): 7 (18%) | PGIC Category 3 Very much improved, patients n (%) ([9]; Day 28, N = 39): 3 (8%) | PGIC Category −1 Minimally worse, patients n (%) ([9]; Day 28, N = 39): 1 (3%) | PGIC Category −2 Much worse, patients n (%) ([9]; Day 28, N = 39): 1 (3%) | PGIC Category −3 Very much worse, patients n (%) ([9]; Day 28, N = 39): 1 (3%) | PGIC (rescaled −3 to 3), Mean (SD) ([9]; Day 28, N=37): 1 (1.3) | PGIC (rescaled −3 to 3), Median (minimum, maximum) ([9]; Day 28, N=37): 1 (−3, 3) | PGIC (rescaled −3 to 3), LS mean (SE) ([9]; Day 28): 0.8 (0.19) | PGIC, LS mean difference from placebo (95% CI) ([9]; Day 28): 0.4 (−0.1, 0.9) | 0 - no change ([9]; Day 15): 11 (28%) n (%) | 1 - minimally improved ([9]; Day 15): 17 (44%) n (%) | 2 - much improved ([9]; Day 15): 8 (21%) n (%) | 3 - very much improved ([9]; Day 15): 1 (3%) n (%) | −1 - minimally worse ([9]; Day 15): 1 (3%) n (%) | −2 - much worse ([9]; Day 15): 1 (3%) n (%) | −3 - very much worse ([9]; Day 15): 0 n (%) | 0 - no change ([9]; Day 28): 14 (36%) n (%) | 1 - minimally improved ([9]; Day 28): 10 (26%) n (%) | 2 - much improved ([9]; Day 28): 7 (18%) n (%) | 3 - very much improved ([9]; Day 28): 3 (8%) n (%) | −1 - minimally worse ([9]; Day 28): 1 (3%) n (%) | −2 - much worse ([9]; Day 28): 1 (3%) n (%) | −3 - very much worse ([9]; Day 28): 1 (3%) n (%) | P-glycoprotein substrate or inhibitor activity (P-glycoprotein): did not demonstrate any activity as a substrate or inhibitor | NOAEL at 90 days ([4]; Beagle, po): 30 mg/kg/day | NOAEL at 90 days ([4]; beagle, oral): 30 mg/kg/day | AUC ([4]; female, Beagle, po, 10 mg/kg/day): 163 µM·h | AUC ([4]; female, beagle, po, 30 mg/kg/day): 363 µM·h | AUC ([4]; male, Beagle, po, 30 mg/kg/day): 335 µM·h | CL (Pharmacokinetics in rats; [11]): 29 mL/min/kg | t½ (Pharmacokinetics in rats; [11]): 0.8 h | F (Pharmacokinetics in rats; Rat, oral 10 mg/kg vs IV 2 mg/kg, mean (SD)): 42 (13) % | Plasma clearance (Pharmacokinetics in rats; rat, in vivo): 29 mL/min/kg | half-life (Pharmacokinetics in rats; rat, in vivo): 0.8 h | bioavailability (Pharmacokinetics in rats; rat, plasma, po, 10 mg/kg, single dose): 42% | t½ (Pharmacokinetics in rats; rodents): 0.8 h | Reduction in cumulative time spent in seizure (WAG/Rij rats; 1 mg/kg, 4 hours after dosing): 55% | Suppression of seizure frequency (WAG/Rij rats; 10 mg/kg): up to 50% | Percent of inhibition (WAG/Rij rats): 77% | Suppression of accumulated time in seizure (WAG/Rij rats; 10 mg/kg, 4 hours after dosing): 77% | Suppression of accumulated time in seizure (WAG/Rij rats; 10 mg/kg, 15 hours after dosing): 54% | IC50 [8]: > 20 µM | AUC (in vivo [10]; female, 300 mg/kg/day): 2080 µM·h | Cmax (in vivo [10]; female, 300 mg/kg/day): 158000 nM | AUC (in vivo [10]; male, 3 mg/kg/day): 62.5 µM·h | Cmax (in vivo [10]; male, 3 mg/kg/day): 8400 nM | Cmax (in vivo [10]; male, 30 mg/kg/day): 73500 nM | Cmax (in vivo [10]; male, 300 mg/kg/day): 253000 nM

From US11311522B1 (Cavion, Inc., priority 2018, dated 2022)
